# Like-named read-outs stand apart in the source and are kept apart here.
# Legend:
# [1] = tested on: patients with multiple myeloma; conditions: cited from earlier work
# [2] = tested on: patients with relapsed and refractory multiple myeloma; test: Grade 3 or 4 adverse events and MTD in the B2207 trial; assay type: in vivo, human
# Excerpt: The two combination studies, B2207 and PANORAMA-1, reported efficacy data in patients with relapsed and refractory multiple myeloma. In the current analysis, exposure–efficacy relationship was explored using the efficacy data (ORR based on IMWG criteria) from the B2207 trial.
# [3] = read-out: Projected Cmax; 20 mg oral dose used in the B2207 study
# [4] = tested on: class I, II, and IV histone deacetylases; conditions: cited from earlier work
# [5] = Panobinostat plasma PK in the B2207 phase 1b trial (LC-MS/MS, non-compartmental); conditions: B2207, PAN + BTZ + Dex vs historical single-agent trials
# Method: In the dose escalation part, PK samples were collected on cycle 1, day 8, and cycle 1, day 15 at pre-dose, and various intervals post-dose up to 48 h.
# patients = tested on: patients; parameters: method as in historical single-agent studies; conditions: 20 mg PAN (tiw qw) single agent, pooled, N = 309, ref historical single-agent studies, cited from earlier work
# [6] = patients with solid tumors; cited from earlier work
# CYP2D6 = conditions: sensitive CYP2D6 substrate, cancer patients; cited from earlier work
# [7] = parameters: method as in unpublished data; conditions: 20 mg panobinostat + 25 mg lenalidomide + 40 mg dexamethasone (day 1 through day 4); ref unpublished data; cited from earlier work
# [8] = Panobinostat plasma PK in the PANORAMA-1 phase 3 trial (Japan subset); assay type: in vivo, human; conditions: PANORAMA-1 cycle 1 day 8, PAN + BTZ + Dex, N = 12
# Method: Each phase was of 24 weeks duration with treatment phase 1 consisting of eight, 3-week cycles and treatment phase 2 consisting of four, 6-week cycles.
# In this study, plasma samples for panobinostat and bortezomib were collected in a subset of Asian patients. Blood samples were taken at scheduled time points (cycle 1, day 1, and cycle 1 day 8 at pre-dose and at 0.5, 1, 2, 3, 4, 8, 24, and 48 h post-dose) for PK analysis.
# [9] = 20 mg PAN single agent (tiw qw), multiple oral dose, N = 32, cited from earlier work
# [10] = cited from earlier work
# [11] = tested on: patients with advanced hematologic malignancies; conditions: panobinostat alone; cited from earlier work
# CYP3A = conditions: strong CYP3A inhibitor, cancer patients; cited from earlier work
# [12] = cited from earlier work; remark: listed apart in the source
# [13] = human, plasma, oral, geometric mean (% CV)
structure (smiles),measurement,setting,value
CC(C)C[C@H](NC(=O)[C@H](Cc1ccccc1)NC(=O)c1cnccn1)B(O)O [bortezomib],Grade ≥3 diarrhea,[1]; 1.3 mg/m^2 IV bortezomib,5%
same,Grade ≥3 diarrhea,[1]; 1.3 mg/m^2 SC bortezomib,2%
same,MTD,"[2]; B2207, twice-weekly (biw), in combination with panobinostat",1.3 mg/m^2
C[C@@H]1C[C@H]2[C@@H]3CCC4=CC(=O)C=C[C@]4(C)[C@@]3(F)[C@@H](O)C[C@]2(C)[C@@]1(O)C(=O)CO [dexamethasone],Cmax,[3],~0.03 µM
"Cc1[nH]c2ccccc2c1CCNCc1ccc(/C=C/C(=O)NO)cc1 [panobinostat, Panobinostat]",Activity against histone deacetylases,[4],low nanomolar activity
same,Lower panobinostat exposure at MTD in combination vs single-agent trials,[5],~50%
same,Grade 3 or 4 anemia,patients,29 (9) %
same,Grade 3 or 4 diarrhea,patients,about 3%
same,Grade 3 or 4 fatigue,patients,13 (4) %
same,Grade 3 or 4 nausea,patients,6 (2) %
same,Grade 3 or 4 neutropenia,patients,42 (14) %
same,Grade 3 or 4 thrombocytopenia,patients,about 21%
same,Grade 3 or 4 vomiting,patients,4 (1) %
same,Grade 3 or 4 diarrhea,patients; listed as PAN,10 (3) %
same,Grade 3 or 4 thrombocytopenia,patients; listed as PAN,66 (21) %
same,"Effect of mild, moderate, or severe renal impairment on plasma exposure",[6],did not alter the plasma exposure
same,Increase of dextromethorphan systemic exposure by panobinostat,CYP2D6,60%
same,Decrease in PAN exposure compared to historical single-agent data,[7],approximately 60%
same,AUC0-24,[8]; geometric mean (% CV),95.2 (28.4) ng h/mL
same,Cmax,[8]; [13],0.0153 µg/mL
same,half-life,[8]; [13],16.7 h
same,AUC(0-t),"[8]; human, plasma, oral, geometric mean (% CV), read-out: AUC0-24",0.095 µg·h/mL
same,Vd/F,"[8]; human, plasma, oral, geometric mean (% CV), read-out: Vz/F",3550 L
same,Tmax,"[8]; human, plasma, oral, median (range)",2.02 h
same,MTD,"[2]; B2207, tiw, in combination with bortezomib",20 mg
same,AUC0-24,[9]; geometric mean (% CV),139 (71) ng h/mL
same,Cmax,[9]; geometric mean (% CV),21.6 (83) ng/mL
same,T1/2,[9]; geometric mean (% CV),16.9 (33) h
same,Tmax,[9]; median (range),1 (0.5–8) h
same,Effect of fed or fasting state on oral bioavailability,[10],marginally affected
same,Grade ≥3 thrombocytopenia,[11],55%
same,Increase of panobinostat systemic exposure by ketoconazole,CYP3A,80%
same,Fraction of the radiolabeled dose recovered in the feces,[12],44 to 77%
same,Fraction of the radiolabeled dose recovered in the urine,[12],29 to 51%
same,Number of metabolites formed,[12],over 70
same,"Unchanged panobinostat in the feces, % of the administered dose",[12],< 3.5%
same,Effective half-life (T1/2),"[12]; single agent, based on the rate of accumulation",approximately 16 h
same,Median Tmax,"[12]; single agent, oral administration",about 2 h
same,Accumulation,[12]; single-agent trial,approximately 1.1 fold
same,Dose linearity of pharmacokinetics,[12]; tested dose range between 10 and 30 mg,approximately linear
same,Steady state reached,[12]; thrice-weekly (tiw) dosing schedule,after the third dose

# Reference: publication PMC4713719 (European Journal of Clinical Pharmacology, 2015)
